# Laboratory results as given in ChEMBL document CHEMBL3988442, “University of Dundee, Small-Polar-MMV Screening Library” (2021).
# “And” between values parts separate entries of the source, which are not always exact repeats. Equal entries are not always repeated.
# Experiments:
# [1] = microbe, parasite or virus in culture; conditions: Mycobacterium tuberculosis, 96 h, read-out: pIC50 (converted)
# Leishmania donovani = assay: Leishmania intramacrophage assay; type: functional, organism-based; conditions: for IC50: Leishmania donovani
# [2] = system: Mycobacterium tuberculosis; assay: Cornell M. t heat shock assay; type: functional, organism-based; conditions: for IC50: Mycobacterium tuberculosis
# [3] = In vitro enzyme assay to detect hydrolysis of chlorophenol red-beta-D-[…] directly proportional to the number of Toxoplasma stably expressing beta-galactosidase; type: functional, organism-based, Toxoplasma gondii; conditions: for IC50: Toxoplasma gondii
# [4] = microbe, parasite or virus in culture; conditions: Mycobacterium tuberculosis, 72 h, read-out: pIC50 (converted)
# Trypanosoma brucei = assay: Trypanosoma brucei 72 hour study; type: functional, organism-based; conditions: for IC50: Trypanosoma brucei, 72 h
# ClpP1P2 = ClpP1P2 (Mycobacterium tuberculosis (strain ATCC 25618 / H37Rv), UniProt P9WPC3+P9WPC5); assay: in vitro assay to detect presence of AMC directly proportional to the activity of ClpP1P2. GHDDI collaboration.; type: functional
# Chain of ClpP1P2 (P9WPC5 whole entry): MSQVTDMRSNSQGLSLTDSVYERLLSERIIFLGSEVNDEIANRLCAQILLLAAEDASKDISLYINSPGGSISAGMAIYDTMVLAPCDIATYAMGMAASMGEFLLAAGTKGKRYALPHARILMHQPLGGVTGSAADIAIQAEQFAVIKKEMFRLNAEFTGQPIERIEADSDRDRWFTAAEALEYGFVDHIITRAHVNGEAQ
# Chain of ClpP1P2 (P9WPC3 whole entry): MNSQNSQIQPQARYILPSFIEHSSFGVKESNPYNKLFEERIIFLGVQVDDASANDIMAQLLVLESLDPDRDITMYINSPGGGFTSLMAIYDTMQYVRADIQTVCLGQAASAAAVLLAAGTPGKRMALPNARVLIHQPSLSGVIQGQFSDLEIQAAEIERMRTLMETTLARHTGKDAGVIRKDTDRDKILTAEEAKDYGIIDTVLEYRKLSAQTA
# Plasmodium falciparum = assay: Calibr Malaria Delayed Death Assay SOP; type: functional, organism-based; conditions: for IC50: Plasmodium falciparum
# Wolbachia pipientis = assay: Anti-Wolbachia Cell-Based Screen; type: functional
# Histidine--tRNA ligase = biological target: T1, Histidine--tRNA ligase (Leishmania infantum, UniProt A4I591); assay: Leishmania infantum Histidine tRNA synthetase (LdHisRS); type: functional
# T1 sequence (A4I591 whole entry): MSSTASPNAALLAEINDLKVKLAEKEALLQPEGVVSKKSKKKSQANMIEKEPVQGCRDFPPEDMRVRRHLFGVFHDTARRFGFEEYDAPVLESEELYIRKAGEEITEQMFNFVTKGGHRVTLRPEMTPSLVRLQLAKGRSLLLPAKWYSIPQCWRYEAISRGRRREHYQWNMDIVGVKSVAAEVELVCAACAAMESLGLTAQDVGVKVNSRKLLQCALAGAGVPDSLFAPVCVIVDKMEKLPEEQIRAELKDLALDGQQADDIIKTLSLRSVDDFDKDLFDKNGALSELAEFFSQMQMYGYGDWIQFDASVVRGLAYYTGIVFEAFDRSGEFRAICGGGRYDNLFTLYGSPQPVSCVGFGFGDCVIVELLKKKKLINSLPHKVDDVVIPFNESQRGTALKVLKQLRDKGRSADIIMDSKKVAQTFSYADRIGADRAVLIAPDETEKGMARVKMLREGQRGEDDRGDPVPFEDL
# Tryptophan--tRNA ligase = Tryptophan--tRNA ligase (Mycobacterium tuberculosis (strain ATCC 25618 / H37Rv), UniProt P9WFT3); assay: Biochemical assay for Mt-TrpRS; type: functional
# Chain of Tryptophan--tRNA ligase (P9WFT3 whole entry): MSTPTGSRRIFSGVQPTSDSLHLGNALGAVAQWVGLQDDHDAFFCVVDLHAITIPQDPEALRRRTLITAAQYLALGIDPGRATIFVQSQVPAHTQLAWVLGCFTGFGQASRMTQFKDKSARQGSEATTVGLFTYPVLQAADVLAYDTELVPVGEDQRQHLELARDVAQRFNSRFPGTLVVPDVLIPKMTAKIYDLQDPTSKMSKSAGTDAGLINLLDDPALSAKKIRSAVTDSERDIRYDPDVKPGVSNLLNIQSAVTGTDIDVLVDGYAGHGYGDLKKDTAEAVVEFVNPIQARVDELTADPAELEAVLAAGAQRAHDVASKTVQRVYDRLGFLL
# [5] = biological target: T2, Coenzyme A biosynthesis bifunctional protein CoaBC (Mycobacterium tuberculosis (strain ATCC 25618 / H37Rv), UniProt P9WNZ1); assay: Biomol Green assay for MtCoaBC inhibitor, OD650 read; type: functional
# T2 sequence (P9WNZ1 whole entry): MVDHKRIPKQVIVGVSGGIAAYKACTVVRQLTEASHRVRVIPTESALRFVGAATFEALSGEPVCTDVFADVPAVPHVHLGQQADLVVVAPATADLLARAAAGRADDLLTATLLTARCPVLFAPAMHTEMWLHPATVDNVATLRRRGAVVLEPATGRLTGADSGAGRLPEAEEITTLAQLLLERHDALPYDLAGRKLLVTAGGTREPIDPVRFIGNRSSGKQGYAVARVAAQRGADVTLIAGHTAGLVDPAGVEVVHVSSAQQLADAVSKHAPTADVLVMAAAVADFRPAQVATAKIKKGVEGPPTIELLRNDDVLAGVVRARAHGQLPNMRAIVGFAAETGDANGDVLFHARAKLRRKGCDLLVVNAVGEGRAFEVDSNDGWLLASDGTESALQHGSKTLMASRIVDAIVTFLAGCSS
SMILES,pIC50 (Leishmania donovani),IC50 (Leishmania donovani) [µM],pIC50 (Trypanosoma brucei),IC50 (Trypanosoma brucei) [µM],also measured
CCCc1cc(=O)[nH]c(-n2nc(C3CC3)cc2N)n1,4.51,39.6,5.268 and 5.368,5.23,IC50 [1]: 23.8 µM; IC50 [2]: 6.14 µM; pIC50 [3]: 5.649; IC50 [3]: 1.95 µM; IC50 [4]: 16.1 µM
CC(C)c1cc(=O)[nH]c(-n2nc(C3CC3)cc2N)n1,4.627,40.3,5.692 and 5.673,2.09,IC50 [1]: 11.5 µM; IC50 [2]: 4.63 µM; pIC50 [3]: 6.102 and 5.757; IC50 [4]: 12.5 µM
CCc1cc(=O)[nH]c(-n2nc(C3CC3)cc2NC(=O)C2CC2)n1,4.573,29.8,5.404 and 5.398,3.41,IC50 [1]: 11.4 µM; pIC50 [3]: 5.904; IC50 [3]: 1.58 µM; IC50 [4]: 12.5 µM
O=C(c1cc(-c2ccn(CC3CC3)n2)n2ccccc12)N1CCOCC1,4.802,18.9,5.586 and 5.592 and 5.253,,IC50 [1]: > 50.1 µM; IC50 (ClpP1P2): > 100 µM; pIC50 (Plasmodium falciparum): 5.917; IC50 (Plasmodium falciparum): 1.01 µM; IC50 [4]: 27.8 µM
Cc1[nH]/c(=N\C(=O)c2csc(NCC(C)C)n2)sc1C,4.614,19.4,5.208 and 5.15,6.25,IC50 [3]: 4.62 µM
Cc1[nH]/c(=N\C(=O)c2csc(NC3CC3)n2)sc1C,4.559,47.7,5.049 and 4.932,13.2,
CCN1CC(CN(C)c2cc(C)nc(N)n2)Oc2ccccc21 (configuration not stated),4.519,35.1,4.724 and 4.705,19.3,
CN1CCN(CC(NCc2cccc(O)c2)c2ccccc2)CC1 (configuration not stated),,13.7,5.312 and 5.375,4.3,
Cc1ccc(CNC(CN2CCN(C)CC2)c2ccccc2)cc1C (configuration not stated),,4.57,5.711 and 5.621,1.7,
COc1c(C)cnc(CN(C)C2CCCCC2)c1C,4.733,13.3,5.179 and 5.161,6.48,pIC50 (Wolbachia pipientis): 5.441; IC50 (Wolbachia pipientis; Wolbachia pipientis): 6.39 µM; pIC50 [3]: 5.219; IC50 [3]: 4.88 µM
Cc1ccc(CNC2CCN(CCc3ccncc3)CC2)cc1C,4.955,15.6,5.061 and 5.288,6.7,
COc1ccc2[nH]cc(-c3ccnc(NC4CCCC4)n3)c2c1,4.561,21.8,5.019 and 4.85,14.6,IC50 [3]: 2.65 µM
COCC(C)NCc1nc(-c2ccc(C)cc2)c(-c2ccccn2)[nH]1 (configuration not stated),4.597,16,,> 50.1,
CCN(Cc1c(F)cccc1Cl)c1cc(C2CCNCC2)nc(C)n1,5.445,3.56,5.239 and 5.238,4.96,IC50 [1]: 24.4 µM; IC50 [3]: 4.56 µM; pIC50 (Plasmodium falciparum): 6.254; IC50 (Plasmodium falciparum): 0.495 µM; IC50 [4]: 37.4 µM
CN1[C@H]2CC[C@@H]1CN(C(=O)c1ccc(-c3ccccc3)[nH]1)CC2,4.659,30.6,4.853 and 4.971,9.62,
COc1ccc(-c2nc(CN3CCCC(OC)C3)c(C)o2)c(F)c1 (configuration not stated),4.638,30.9,5.649 and 5.647,2.36,
CC(N)C(=O)N1CCC(Oc2cccc(C(F)(F)F)c2)CC1 (configuration not stated),4.638,19.3,5.074 and 4.999,13.2,
CC(C)N1CCCC(C(=O)N2CCN(c3nsc4ccccc34)CC2)C1 (configuration not stated),4.419,30.3,4.562 and 4.572,20.3,
Cc1nc2c(c(NCc3cc4ccccc4s3)n1)CCNCC2,5.15,5.79,5.606 and 5.633,2.29,IC50 [1]: 38 µM; IC50 [4]: > 50.1 µM
Cc1c(C)c(C)c2[nH]c(-c3cn(C4CCNCC4)nn3)nc2c1C,4.511,19.8,5.199 and 5.184,6.01,

SMILES,pIC50 (Leishmania donovani),IC50 (Leishmania donovani) [µM],pIC50 (Trypanosoma brucei),IC50 (Trypanosoma brucei) [µM],also measured
CCCc1ccc(C(C)Nc2ncnc3c2CCNC3)cc1 (configuration not stated),4.733,21.6,4.735 and 4.73,20.2,
CCC1CN(C(=O)c2csc3nc(-c4ccc(Cl)cc4)cn23)CCN1 (configuration not stated),4.877,12.4,5.161 and 5.156,7.75,IC50 [1]: 49.2 µM; IC50 [4]: 17.9 µM
CCCOc1ccccc1CCCNc1ncnc2oc(C)nc12,4.492 and 4.801,,5.583 and 5.61,4.09,IC50 [1]: > 50.1 µM; IC50 [4]: 25.4 µM
CC(Nc1ncnc2c1CCNC2)c1ccc2c(c1)CCCC2 (configuration not stated),4.725,25,4.894 and 4.867,8.18,
Cc1sc2nc(CCN)nc(N(C)CCCC3CCCO3)c2c1C (configuration not stated),,> 50.1,4.729 and 4.748,22.5,
CCNC(=O)[C@@H]1C[C@@H](N)CN1Cc1ccc(Sc2ccc(C)cc2)o1,4.875,13.8,5.166 and 5.161,6.83,
Clc1cccc(C2CCN(c3ncnc4c3CCNC4)C2)c1 (configuration not stated),4.674,23.9,4.718 and 4.683,19.9,IC50 [1]: 29.6 µM; IC50 [4]: > 50.1 µM
OC(CNc1nc(C2CCCC2)nc2c1CCNCC2)C(F)(F)F (configuration not stated),4.72 and 4.703,18.4,5.186 and 5.15,6.61,
CC(Nc1ncnc2c1CCNC2)c1ccc(C(C)(C)C)cc1 (configuration not stated),4.856,19.6,4.656 and 4.706,20.6,
Nc1cc(N2CCC(c3cc(Cc4ccccc4)n[nH]3)CC2)ccn1,4.671,17.4,5.138 and 5.184,6.85,pIC50 [3]: 5.141; IC50 [3]: 4.92 µM; IC50 (Histidine--tRNA ligase): 69.6 µM and 73.8 µM
COCCN(CC1CC1)c1nc(CCN)nc2sc(C)c(C)c12,,> 25.1,4.814 and 4.866,16.2,
CN(Cc1cccc(O)c1)CC1CCCN(CCc2ccc(Cl)cc2)C1 (configuration not stated),5.277 and 4.854,,5.504 and 5.492,3.82,pIC50 (Plasmodium falciparum): 6.224; IC50 (Plasmodium falciparum): 0.634 µM
O=C(NCCc1coc(-c2ccc(F)cc2)n1)NC1CC1,,,5.662 and 5.643,2.17,
CN(C)S(=O)(=O)c1ccc(-c2nc(C#N)c(NC(C)(C)C)o2)o1.Cl,,> 50.1,4.737 and 4.726,18.4,IC50 (ClpP1P2): > 100 µM; IC50 [2]: 11.3 µM; IC50 [3]: 7.65 µM
CCOC(=O)N1CC2(CCNCC2)c2cc(Cl)ccc21.Cl,4.68,22.3,4.722 and 4.602,20.3,
Cl.NC1CCc2nc(-c3cccnc3)nc(Nc3ccc(F)cc3)c2C1 (configuration not stated),5.001,8.3,5.072 and 4.886,7.84,IC50 [1]: 48.6 µM; pIC50 [2]: 4.893; IC50 [2]: 6.43 µM; pIC50 (Plasmodium falciparum): 6.698; IC50 (Plasmodium falciparum): 0.204 µM; IC50 [4]: 22.2 µM
Cc1nc(C2(O)CCCNCC2)sc1CCOc1ccc(F)c(F)c1.Cl (configuration not stated),4.936,11.6,5.175 and 5.131,6.99,IC50 (Tryptophan--tRNA ligase): > 195 µM
Cc1nc(C2(O)CCCNCC2)sc1CCOc1ccc(Cl)cc1.Cl (configuration not stated),4.792,8.46,5.216 and 5.242,5.07,IC50 [3]: 11 µM
FC1(F)CCN(Cc2cccnc2)CC12CCN(c1ccccc1)C2.O=C(O)C(F)(F)F.O=C(O)C(F)(F)F.O=C(O)C(F)(F)F (configuration not stated),,,5.234 and 5.17,6.05,IC50 [1]: 12.5 µM; pIC50 (Plasmodium falciparum): 5.955; IC50 (Plasmodium falciparum): 1.16 µM; IC50 [4]: 43.8 µM; IC50 [5]: > 30.2 µM; IC50 (Histidine--tRNA ligase): 13.6 µM and 18.6 µM
